Patent US20260022142A1, “MACROCYCLIC IMMUNOMODULATORS” (Bristol-Myers Squibb Company, priority 2022, published 2026)
Bridge positions count the residues as written; N and C are the ends. Square brackets hold non-standard residues; d marks the D form. Peptide text beside a SMILES is read from it. * marks the point of attachment. Bip = N[C@@H](Cc1ccc(-c2ccccc2)cc1)C(=O)O; NH(CH2)14COOH = O=C(O)CCCCCCCCCCCCCCN*; Phe(3-Me) = Cc1cccc(C[C@H](N)C(=O)O)c1; NH(CH2)12COOH = O=C(O)CCCCCCCCCCCCN*; Val(3-OH) = CC(C)(O)[C@H](N)C(=O)O; hPhe = N[C@@H](CCc1ccccc1)C(=O)O; 4Pal = N[C@@H](Cc1ccncc1)C(=O)O; Cha = N[C@@H](CC1CCCCC1)C(=O)O; Cba = N[C@@H](CC1CCC1)C(=O)O; hSer = N[C@@H](CCO)C(=O)O; Carboxymethyl = O=C(O)C*; Orn = NCCC[C@H](N)C(=O)O; Aun = NCCCCCCCCCCC(=O)O; Dab = NCC[C@H](N)C(=O)O; Nva = CCC[C@H](N)C(=O)O; Dap = NC[C@H](N)C(=O)O

Target: T1, PD-1/PD-L1 interaction (PE-labeled human PD-L1-Ig binding to Jurkat cell line over-expressing human PD-1) (Homo sapiens, UniProt Q15116)
T1 construct: expressed in transfected cells; host or cells: Jurkat
T1 sequence (Q15116 25-288): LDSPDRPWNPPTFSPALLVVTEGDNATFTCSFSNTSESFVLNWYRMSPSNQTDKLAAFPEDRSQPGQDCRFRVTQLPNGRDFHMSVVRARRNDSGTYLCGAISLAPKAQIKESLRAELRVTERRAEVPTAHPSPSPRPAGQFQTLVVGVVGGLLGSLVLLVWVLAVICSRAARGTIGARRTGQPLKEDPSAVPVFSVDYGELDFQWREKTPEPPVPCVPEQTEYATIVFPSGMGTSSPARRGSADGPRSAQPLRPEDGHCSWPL
Assay: Jurkat-PD-1 Cell Binding High-Content Screening Assay (CBA)
Format: cell-based
Settings: Jurkat cell line over-expressing human PD-1; PE-labeled PD-L1-Ig 20 nM final; read-out: Jurkat hPD1-PDL1 IC50
Method in brief: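 Binding of fluorescent PD-L1-Ig (phycoerythrin on Ig tag, 20 nM final, 1 h) measured by high-content imaging of fixed, Hoechst-counterstained Jurkat-hPD-1 cells. Compound added 2 h at 37° C beforehand, in DMEM with 10% fetal calf serum.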

Row | SMILES | IC50 [nM]
1 | Cc1cccc(C[C@@H]2NC(=O)[C@H](CC(=O)O)NC(=O)[C@H](Cc3ccc(OCC(=O)O)cc3)NC(=O)[C@H](Cc3ccncc3)NC(=O)CSC[C@@H](C(=O)N[C@@H](CCN)C(=O)NCCCCCCCCCCCCC(=O)O)NC(=O)[C@H](CO)NC(=O)[C@H](C(C)(C)O)NC(=O)[C@H](CC3CCCCC3)NC(=O)[C@H](CCN)NC(=O)[C@@H](CC(C)C)NC(=O)[C@H](CCCN)NC(=O)[C@H](Cc3ccc(OCC(=O)O)cc3)NC(=O)[C@H](Cc3ccc(-c4ccccc4)cc3)NC(=O)[C@H](Cc3ccc(OCC(=O)O)cc3)NC2=O)c1 [Compound 2224] ({CH2CO}-[4Pal]Y(Carboxymethyl)D[Phe(3-Me)]Y(Carboxymethyl)[Bip]Y(Carboxymethyl)[Orn][dL][Dab][Cha][Val(3-OH)]SC[Dab]-{NH(CH2)12COOH}; thioether N-14) | 26.2
2 | Cc1cccc(C[C@@H]2NC(=O)[C@H](CC(=O)O)NC(=O)[C@H](Cc3ccc(OCC(=O)O)cc3)NC(=O)[C@H](Cc3ccncc3)NC(=O)CSC[C@@H](C(=O)N[C@@H](CCN)C(=O)NCCCCCCCCCCCCCCC(=O)O)NC(=O)[C@H](CO)NC(=O)[C@H](C(C)(C)O)NC(=O)[C@H](CC3CCCCC3)NC(=O)[C@H](CCN)NC(=O)[C@@H](CC(C)C)NC(=O)[C@H](CCCN)NC(=O)[C@H](Cc3ccc(OCC(=O)O)cc3)NC(=O)[C@H](Cc3ccc(-c4ccccc4)cc3)NC(=O)[C@H](Cc3ccc(OCC(=O)O)cc3)NC2=O)c1 [Compound 2227] ({CH2CO}-[4Pal]Y(Carboxymethyl)D[Phe(3-Me)]Y(Carboxymethyl)[Bip]Y(Carboxymethyl)[Orn][dL][Dab][Cha][Val(3-OH)]SC[Dab]-{NH(CH2)14COOH}; thioether N-14) | 204
3 | COc1ccc(C[C@@H]2NC(=O)[C@H](Cc3cccc(C)c3)NC(=O)[C@H](CC(=O)O)NC(=O)[C@H](Cc3ccc(OCC(=O)O)cc3)NC(=O)[C@H](Cc3ccncc3)NC(=O)CSC[C@@H](C(=O)N[C@@H](CCN)C(=O)NCCCCCCCCCCC(=O)O)NC(=O)[C@H](CO)NC(=O)[C@H](C(C)(C)O)NC(=O)[C@H](CC3CCCCC3)NC(=O)[C@H](CCN)NC(=O)[C@@H](CC(C)C)NC(=O)[C@H](CCCN)NC(=O)[C@H](Cc3ccc(OCC(=O)O)cc3)NC(=O)[C@H](Cc3ccc(-c4ccccc4)cc3)NC2=O)cc1 [Compound 2229] ({CH2CO}-[4Pal]Y(Carboxymethyl)D[Phe(3-Me)]Y(Me)[Bip]Y(Carboxymethyl)[Orn][dL][Dab][Cha][Val(3-OH)]SC[Dab][Aun]-OH; thioether N-14) | 0.6
4 | Cc1cccc(C[C@@H]2NC(=O)[C@H](CC(=O)O)NC(=O)[C@H](Cc3ccc(OCC(=O)O)cc3)NC(=O)[C@H](CCc3ccccc3)NC(=O)CSC[C@@H](C(=O)N[C@@H](CCN)C(=O)NCCCCCCCCCCC(=O)O)NC(=O)[C@H](CO)NC(=O)[C@H](C(C)(C)O)NC(=O)[C@H](CC3CCCCC3)NC(=O)[C@H](CCN)NC(=O)[C@@H](CC(C)C)NC(=O)[C@H](CCCN)NC(=O)[C@H](Cc3ccc(OCC(=O)O)cc3)NC(=O)[C@H](Cc3ccc(-c4ccccc4)cc3)NC(=O)[C@H](Cc3ccc(OCC(=O)O)cc3)NC2=O)c1 [Compound 2231] ({CH2CO}-[hPhe]Y(Carboxymethyl)D[Phe(3-Me)]Y(Carboxymethyl)[Bip]Y(Carboxymethyl)[Orn][dL][Dab][Cha][Val(3-OH)]SC[Dab][Aun]-OH; thioether N-14) | 15.2
5 | Cc1cccc(C[C@@H]2NC(=O)[C@H](CC(=O)O)NC(=O)[C@H](Cc3ccc(OCC(=O)O)cc3)NC(=O)[C@@H](CCCNC(=N)N)NC(=O)CSC[C@@H](C(=O)N[C@@H](CCN)C(=O)NCCCCCCCCCCC(=O)O)NC(=O)[C@H](CO)NC(=O)[C@H](C(C)(C)O)NC(=O)[C@H](CC3CCCCC3)NC(=O)[C@H](CCN)NC(=O)[C@@H](CC(C)C)NC(=O)[C@H](CCCN)NC(=O)[C@H](Cc3ccc(OCC(=O)O)cc3)NC(=O)[C@H](Cc3ccc(-c4ccccc4)cc3)NC(=O)[C@H](Cc3ccc(OCC(=O)O)cc3)NC2=O)c1 [Compound 2232] ({CH2CO}-[dR]Y(Carboxymethyl)D[Phe(3-Me)]Y(Carboxymethyl)[Bip]Y(Carboxymethyl)[Orn][dL][Dab][Cha][Val(3-OH)]SC[Dab][Aun]-OH; thioether N-14) | 238
6 | Cc1cccc(C[C@@H]2NC(=O)[C@H](CC(=O)O)NC(=O)[C@H](Cc3ccc(OCC(=O)O)cc3)NC(=O)[C@H](CC3CCC3)NC(=O)CSC[C@@H](C(=O)N[C@@H](CCN)C(=O)NCCCCCCCCCCC(=O)O)NC(=O)[C@H](CO)NC(=O)[C@H](C(C)(C)O)NC(=O)[C@H](CC3CCCCC3)NC(=O)[C@H](CCN)NC(=O)[C@@H](CC(C)C)NC(=O)[C@H](CCCN)NC(=O)[C@H](Cc3ccc(OCC(=O)O)cc3)NC(=O)[C@H](Cc3ccc(-c4ccccc4)cc3)NC(=O)[C@H](Cc3ccc(OCC(=O)O)cc3)NC2=O)c1 [Compound 2233] ({CH2CO}-[Cba]Y(Carboxymethyl)D[Phe(3-Me)]Y(Carboxymethyl)[Bip]Y(Carboxymethyl)[Orn][dL][Dab][Cha][Val(3-OH)]SC[Dab][Aun]-OH; thioether N-14) | 5

Now from value to molecule:

Row | IC50 [nM] | SMILES
7 | 12.3 | Cc1cccc(C[C@@H]2NC(=O)[C@H](CC(=O)O)NC(=O)[C@H](Cc3ccc(OCC(=O)O)cc3)NC(=O)[C@H](CC(N)=O)NC(=O)CSC[C@@H](C(=O)N[C@@H](CCN)C(=O)NCCCCCCCCCCC(=O)O)NC(=O)[C@H](CO)NC(=O)[C@H](C(C)(C)O)NC(=O)[C@H](CC3CCCCC3)NC(=O)[C@H](CCN)NC(=O)[C@@H](CC(C)C)NC(=O)[C@H](CCCN)NC(=O)[C@H](Cc3ccc(OCC(=O)O)cc3)NC(=O)[C@H](Cc3ccc(-c4ccccc4)cc3)NC(=O)[C@H](Cc3ccc(OCC(=O)O)cc3)NC2=O)c1 [Compound 2220] ({CH2CO}-NY(Carboxymethyl)D[Phe(3-Me)]Y(Carboxymethyl)[Bip]Y(Carboxymethyl)[Orn][dL][Dab][Cha][Val(3-OH)]SC[Dab][Aun]-OH; thioether N-14)
8 | 17.6 | Cc1cccc(C[C@@H]2NC(=O)[C@H](CC(=O)O)NC(=O)[C@H](Cc3ccc(OCC(=O)O)cc3)NC(=O)[C@H](CN)NC(=O)CSC[C@@H](C(=O)N[C@@H](CCN)C(=O)NCCCCCCCCCCCCC(=O)O)NC(=O)[C@H](CO)NC(=O)[C@H](C(C)(C)O)NC(=O)[C@H](CC3CCCCC3)NC(=O)[C@H](CCN)NC(=O)[C@@H](CC(C)C)NC(=O)[C@H](CCCN)NC(=O)[C@H](Cc3ccc(OCC(=O)O)cc3)NC(=O)[C@H](Cc3ccc(-c4ccccc4)cc3)NC(=O)[C@H](Cc3ccc(OCC(=O)O)cc3)NC2=O)c1 [Compound 2222] ({CH2CO}-[Dap]Y(Carboxymethyl)D[Phe(3-Me)]Y(Carboxymethyl)[Bip]Y(Carboxymethyl)[Orn][dL][Dab][Cha][Val(3-OH)]SC[Dab]-{NH(CH2)12COOH}; thioether N-14)
9 | 280 | Cc1cccc(C[C@@H]2NC(=O)[C@H](CC(=O)O)NC(=O)[C@H](Cc3ccc(OCC(=O)O)cc3)NC(=O)[C@H](CN)NC(=O)CSC[C@@H](C(=O)N[C@@H](CCN)C(=O)NCCCCCCCCCCCCCCC(=O)O)NC(=O)[C@H](CO)NC(=O)[C@H](C(C)(C)O)NC(=O)[C@H](CC3CCCCC3)NC(=O)[C@H](CCN)NC(=O)[C@@H](CC(C)C)NC(=O)[C@H](CCCN)NC(=O)[C@H](Cc3ccc(OCC(=O)O)cc3)NC(=O)[C@H](Cc3ccc(-c4ccccc4)cc3)NC(=O)[C@H](Cc3ccc(OCC(=O)O)cc3)NC2=O)c1 [Compound 2223] ({CH2CO}-[Dap]Y(Carboxymethyl)D[Phe(3-Me)]Y(Carboxymethyl)[Bip]Y(Carboxymethyl)[Orn][dL][Dab][Cha][Val(3-OH)]SC[Dab]-{NH(CH2)14COOH}; thioether N-14)
10 | 27.8 | CCC[C@@H]1NC(=O)CSC[C@@H](C(=O)N[C@@H](CCN)C(=O)NCCCCCCCCCCCCC(=O)O)NC(=O)[C@H](CO)NC(=O)[C@H](C(C)(C)O)NC(=O)[C@H](CC2CCCCC2)NC(=O)[C@H](CCN)NC(=O)[C@@H](CC(C)C)NC(=O)[C@H](CCCN)NC(=O)[C@H](Cc2ccc(OCC(=O)O)cc2)NC(=O)[C@H](Cc2ccc(-c3ccccc3)cc2)NC(=O)[C@H](Cc2ccc(OCC(=O)O)cc2)NC(=O)[C@H](Cc2cccc(C)c2)NC(=O)[C@H](CC(=O)O)NC(=O)[C@H](Cc2ccc(OCC(=O)O)cc2)NC1=O [Compound 2226] ({CH2CO}-[Nva]Y(Carboxymethyl)D[Phe(3-Me)]Y(Carboxymethyl)[Bip]Y(Carboxymethyl)[Orn][dL][Dab][Cha][Val(3-OH)]SC[Dab]-{NH(CH2)12COOH}; thioether N-14)
11 | 78.1 | Cc1cccc(C[C@@H]2NC(=O)[C@H](CC(=O)O)NC(=O)[C@H](Cc3ccc(OCC(=O)O)cc3)NC(=O)[C@H](CCCNC(=N)N)NC(=O)CSC[C@@H](C(=O)N[C@@H](CCN)C(=O)NCCCCCCCCCCCCCCC(=O)O)NC(=O)[C@H](CO)NC(=O)[C@H](C(C)(C)O)NC(=O)[C@H](CC3CCCCC3)NC(=O)[C@H](CCN)NC(=O)[C@@H](CC(C)C)NC(=O)[C@H](CCCN)NC(=O)[C@H](Cc3ccc(OCC(=O)O)cc3)NC(=O)[C@H](Cc3ccc(-c4ccccc4)cc3)NC(=O)[C@H](Cc3ccc(OCC(=O)O)cc3)NC2=O)c1 [Compound 2228] ({CH2CO}-RY(Carboxymethyl)D[Phe(3-Me)]Y(Carboxymethyl)[Bip]Y(Carboxymethyl)[Orn][dL][Dab][Cha][Val(3-OH)]SC[Dab]-{NH(CH2)14COOH}; thioether N-14)
12 | 2.2 | Cc1cccc(C[C@@H]2NC(=O)[C@H](CC(=O)O)NC(=O)[C@H](Cc3ccc(OCC(=O)O)cc3)NC(=O)[C@H](CCO)NC(=O)CSC[C@@H](C(=O)N[C@@H](CCN)C(=O)NCCCCCCCCCCC(=O)O)NC(=O)[C@H](CO)NC(=O)[C@H](C(C)(C)O)NC(=O)[C@H](CC3CCCCC3)NC(=O)[C@H](CCN)NC(=O)[C@@H](CC(C)C)NC(=O)[C@H](CCCN)NC(=O)[C@H](Cc3ccc(OCC(=O)O)cc3)NC(=O)[C@H](Cc3ccc(-c4ccccc4)cc3)NC(=O)[C@H](Cc3ccc(OCC(=O)O)cc3)NC2=O)c1 [Compound 2230] ({CH2CO}-[hSer]Y(Carboxymethyl)D[Phe(3-Me)]Y(Carboxymethyl)[Bip]Y(Carboxymethyl)[Orn][dL][Dab][Cha][Val(3-OH)]SC[Dab][Aun]-OH; thioether N-14)
